# Reference: patent US20090312280A1
# Test system: Colo205 human colon carcinoma xenografts
# Test: in vivo chemopotentiation, Colo205 xenograft
# Design: species or system mice
# Procedure: Experiments 1 to 39 were conducted in mice xenografts. Experiments 40-42 were conducted in rat xenografts. Specifically, irinotecan combination studies were conducted in HT29 and Colo205. Gemcitabine combination studies were conducted in Colo205. Docetaxel combination studies were conducted in Colo205.
# Gemcitabine and irinotecan are DNA directed cytotoxics known to induce checkpoint activation and subsequent S/G2M-phase arrest. […] Docetaxel is an antimitotics where recent discoveries describe a novel function for CHK1 in the mitotic checkpoint.
# [1] = Exp 18, docetaxel 30 mg/kg, Compound 1 30 mg/kg as printed, IP Q1w×3
# [2] = Exp 19, docetaxel 30 mg/kg + Compound 1 7.5 mg/kg, IP simultaneously Q1w×3
# [3] = Exp 20, docetaxel 30 mg/kg + Compound 1 15 mg/kg, IP simultaneously Q1w×3
# [4] = Exp 21, docetaxel 30 mg/kg + Compound 1 30 mg/kg, IP simultaneously Q1w×3
# [5] = Exp 22, docetaxel 15 mg/kg, Compound 1 15 mg/kg as printed, IP Q1w×3
# [6] = Exp 23, docetaxel 15 mg/kg + Compound 1 15 mg/kg, IP simultaneously Q1w×3
# [7] = Exp 24, docetaxel 15 mg/kg + Compound 1 30 mg/kg, IP simultaneously Q1w×3
# [8] = Exp 25, docetaxel 15 mg/kg Q1w×3 + Compound 1 60 mg/kg, IP simultaneously, Compound 1 two cycles, total 120 mg/kg
structure (smiles),measurement,setting,value
CC(=O)O[C@@]12CO[C@@H]1C[C@H](O)[C@@]1(C)C(=O)[C@H](O)C3=C(C)[C@@H](OC(=O)[C@H](O)[C@@H](NC(=O)OC(C)(C)C)c4ccccc4)C[C@@](O)([C@@H](OC(=O)c4ccccc4)[C@H]21)C3(C)C [Docetaxel],% TGI,[1],85%
same,Growth delay,[1],54 days
same,% TGI,[2],90%
same,% poten TGI,[2],35%
same,Growth delay,[2],53 days
same,% TGI,[3],93%
same,% TTP,[3],36%
same,% poten TGI,[3],57%
same,Growth delay,[3],68 days
same,% TGI,[4],103%
same,% TTP,[4],50%
same,% poten TGI,[4],122%
same,Growth delay,[4],74 days
same,% TGI,[5],49%
same,Growth delay,[5],4.75 days
same,% TGI,[6],65%
same,% TTP,[6],72%
same,% poten TGI,[6],31%
same,Growth delay,[6],19.75 days
same,% TGI,[7],79%
same,% TTP,[7],177%
same,% poten TGI,[7],59%
same,Growth delay,[7],41.5 days
same,% TGI,[8],99%
same,% TTP,[8],145%
same,% poten TGI,[8],99%
same,Growth delay,[8],35 days
